The source of these data is patent US9029391B2 (priority 2011, dated 2015).

This assay concerns HIV. Briefly: MT4 Assay (anti-HIV activity). Type of assay: cell-based. To be noted: Human immunodeficiency virus 1, 96 h, read-out: HIV MT4 Assay IC50, HTLV-1 transformed cell line MT-4, cell titer glo, 10 point dose response curve. As to the method:
Antiviral HIV activity and cytotoxicity values for compounds of the invention from Table 1 were measured in parallel in the HTLV-1 transformed cell line MT-4 based on the method previously described (Hazen et al., 2007, In vitro antiviral activity of the novel, tyrosyl-based human immunodeficiency virus (HIV) type 1 protease inhibitor brecanavir (GW640385) in combination with other antiretrovirals and against a panel of protease inhibitor-resistant HIV (Hazen et al., “In vitro antiviral activity of the novel, tyrosyl-based human immunodeficiency virus (HIV) type 1 protease inhibitor brecanavir (GW640385) in combination with other antiretrovirals and against a panel of protease inhibitor-resistant HIV”, Antimicrob. Agents Chemother. 2007, 51: 3147-3154; and Pauwels et al., “Sensitive and rapid assay on MT-4 cells for the detection of antiviral compounds against the AIDS virus”, J. of Virological Methods 1987, 16: 171-185).
Luciferase activity was measured 96 hours later by adding a cell titer glo (Promega, Madison, Wis.). Percent inhibition of cell protection data was plotted relative to no compound control. Under the same condition, cytotoxicity of the compounds was determined using cell titer glo (Promega, Madison, Wis.). IC50s were determined from a 10 point dose response curve using 3-4-fold serial dilution for each compound, which spans a concentration range >1000 fold.
For `Cc1c(-c2c(C(OC(C)(C)C)C(=O)O)n(C)c(=O)c3cc(OCCN4CCOCC4)ccc23)ccc2c1CCCO2` (centres unmarked) [Example 119, 2-(tert-butoxy)-2-[2-methyl-4-(5-methyl-3,4-dihydro-2H-1-benzopyran-6-yl)-7-[2-(morpholin-4-yl)ethoxy]-1-oxo-1,2-dihydroisoquinolin-3-yl]acetic acid], the half-maximal inhibitory concentration (IC50) turned out to be 2130 nM. The value for `Cc1c(-c2c([C@H](OC(C)(C)C)C(=O)O)n(C)c(=O)c3cc(CN4CCOCC4)ccc23)cc(F)c2c1CCCO2` (atropisomer, axis not shown; (M)) [Example 189, (S)(M)-2-(tert-butoxy)-2-(4-(8-fluoro-5-methylchroman-6-yl)-2-methyl-7-(morpholinomethyl)-1-oxo-1,2-dihydroisoquinolin-3-yl)acetic acid] was 40 nM; that for `Cc1ccc2c(=O)n(C)c(C(OC(C)(C)C)C(=O)O)c(-c3ccc(C)c(C)c3)c2c1` (centres unmarked) [Example 55, 2-(tert-butoxy)-2-[4-(3,4-dimethylphenyl)-2,6-dimethyl-1-oxo-1,2-dihydroisoquinolin-3-yl]acetic acid] was 2560 nM. The value for `CCCC(C(=O)O)c1c(-c2ccc(C)cc2C)c2ccccc2c(=O)n1C` (centres unmarked) [Example 216, 2-[4-(2,4-dimethylphenyl)-2-methyl-1-oxo-1,2-dihydro-3-isoquinolinyl]pentanoic acid] was 36600 nM; that for `Cc1c(-c2c([C@H](OC(C)(C)C)C(=O)O)n(C)c(=O)c3cc(OCc4ccccn4)ccc23)ccc2c1CCCO2` [Example 144, (2S)-2-(tert-butoxy)-2-[2-methyl-4-(5-methyl-3,4-dihydro-2H-1-benzopyran-6-yl)-1-oxo-7-(pyridin-2-ylmethoxy)-1,2-dihydroisoquinolin-3-yl]acetic acid] was 40 nM; that for `Cc1occc1-c1ccc2c(-c3cc(F)c4c(c3C)CCCO4)c([C@H](OC(C)(C)C)C(=O)O)n(C)c(=O)c2c1` (atropisomer, axis not shown; (M)) [Example 203, (2S)(M)-[(1,1-dimethylethyl)oxy][4-(8-fluoro-5-methyl-3,4-dihydro-2H-chromen-6-yl)-2-methyl-7-(2-methyl-3-furanyl)-1-oxo-1,2-dihydro-3-isoquinolinyl]ethanoic acid] was 30 nM. `Cc1ccc(-c2c(C(OC(C)(C)C)C(=O)O)n(C)c(=O)c3cc(CNC(=O)C(=O)O)ccc23)cc1C` (centres unmarked) [Example 186, 2-(tert-butoxy)-2-(7-((carboxyformamido)methyl)-4-(3,4-dimethylphenyl)-2-methyl-1-oxo-1,2-dihydroisoquinolin-3-yl)acetic acid]: the IC50 turned out to be 50000 nM. As for `Cn1c(C(OC(C)(C)C)C(=O)O)c(-c2ccc(F)c(F)c2)c2ccccc2c1=O` (centres unmarked) [Example 38, 2-(tert-butoxy)-2-[4-(3,4-difluorophenyl)-2-methyl-1-oxo-1,2-dihydroisoquinolin-3-yl]acetic acid], the figure is 2410 nM.

On to `Cc1c(-c2c([C@H](OC(C)(C)C)C(=O)O)n(C)c(=O)c3cc(-c4ccccc4)ccc23)cc(F)c2c1CCCO2` (atropisomer, axis not shown; (M)) [Example 204, (2S)(M)-[(1,1-dimethylethyl)oxy][4-(8-fluoro-5-methyl-3,4-dihydro-2H-chromen-6-yl)-2-methyl-1-oxo-7-phenyl-1,2-dihydro-3-isoquinolinyl]ethanoic acid], for which the IC50 is 30 nM.

`CCCOc1ccc(-c2c(C(OC(C)(C)C)C(=O)O)n(C)c(=O)c3ccccc23)cc1` (centres unmarked) [Example 44, 2-(tert-butoxy)-2-[2-methyl-1-oxo-4-(4-propoxyphenyl)-1,2-dihydroisoquinolin-3-yl]acetic acid]: the half-inhibitory concentration (IC50) came to 38900 nM. Regarding `Cc1noc(C)c1-c1ccc2c(-c3cc(F)c4c(c3C)CCCO4)c([C@H](OC(C)(C)C)C(=O)O)n(C)c(=O)c2c1` (atropisomer, axis not shown; (M)) [Example 207, (2S)(M)-[(1,1-dimethylethyl)oxy][7-(3,5-dimethyl-4-isoxazolyl)-4-(8-fluoro-5-methyl-3,4-dihydro-2H-chromen-6-yl)-2-methyl-1-oxo-1,2-dihydro-3-isoquinolinyl]ethanoic acid], the IC50 was found to be 80 nM. As for `Cn1c(C(OC(C)(C)C)C(=O)O)c(-c2cccnc2)c2ccccc2c1=O` (centres unmarked) [Example 41, 2-(tert-butoxy)-2-[2-methyl-1-oxo-4-(pyridin-3-yl)-1,2-dihydroisoquinolin-3-yl]acetic acid], the figure is 50000 nM; as for `Cc1cccnc1COc1ccc2c(-c3ccc4c(c3C)CCCO4)c(C(OC(C)(C)C)C(=O)O)n(C)c(=O)c2c1` (centres unmarked) [Example 102, 2-(tert-butoxy)-2-[2-methyl-4-(5-methyl-3,4-dihydro-2H-1-benzopyran-6-yl)-7-[(3-methylpyridin-2-yl)methoxy]-1-oxo-1,2-dihydroisoquinolin-3-yl]acetic acid], 330 nM.

With `Cc1cccc(-c2c(C(OC(C)(C)C)C(=O)O)n(C)c(=O)c3ccccc23)c1` (centres unmarked) [Example 18, 2-(tert-butoxy)-2-[2-methyl-4-(3-methylphenyl)-1-oxo-1,2-dihydroisoquinolin-3-yl]acetic acid], the IC50 was found to be 3580 nM. As for `Cn1c(C(OC(C)(C)C)C(=O)O)c(-c2ccc3c(c2)CCCO3)c2cc(Cl)ccc2c1=O` (centres unmarked) [Example 26, 2-(tert-butoxy)-2-[6-chloro-4-(3,4-dihydro-2H-1-benzopyran-6-yl)-2-methyl-1-oxo-1,2-dihydroisoquinolin-3-yl]acetic acid], the figure is 1900 nM; as for `Cc1c(-c2c(C(OC(C)(C)C)C(=O)O)n(C)c(=O)c3cc(OCc4ccccc4)ccc23)ccc2c1CCCO2` (centres unmarked) [Example 88, 2-[7-(benzyloxy)-2-methyl-4-(5-methyl-3,4-dihydro-2H-1-benzopyran-6-yl)-1-oxo-1,2-dihydroisoquinolin-3-yl]-2-(tert-butoxy)acetic acid], 110 nM; as for `Cc1c(-c2c(C(OC(C)(C)C)C(=O)O)n(C)c(=O)c3c(F)cccc23)cc(F)c2c1CCCO2` (centres unmarked) [Example 90, 2-(tert-butoxy)-2-[8-fluoro-4-(8-fluoro-5-methyl-3,4-dihydro-2H-1-benzopyran-6-yl)-2-methyl-1-oxo-1,2-dihydroisoquinolin-3-yl]acetic acid], 510 nM. Consider `Cn1c(C(OC(C)(C)C)C(=O)O)c(-c2cc(F)cc(F)c2)c2ccccc2c1=O` (centres unmarked) [Example 6, 2-(tert-butoxy)-2-[4-(3,5-difluorophenyl)-2-methyl-1-oxo-1,2-dihydroisoquinolin-3-yl]acetic acid], for which the IC50 turned out to be 10600 nM. On to `Cc1c(-c2c([C@H](OC(C)(C)C)C(=O)O)n(C)c(=O)c3cc(-c4ccc(F)cc4)ccc23)cc(F)c2c1CCCO2` (atropisomer, axis not shown; (M)) [Example 209, (S)(M)-2-(tert-butoxy)-2-(4-(8-fluoro-5-methylchroman-6-yl)-7-(4-fluorophenyl)-2-methyl-1-oxo-1,2-dihydroisoquinolin-3-yl)acetic acid], for which the IC50 stood at 20 nM. The value for `Cc1ccc(-c2c(C(OC(C)(C)C)C(=O)O)n(C)c(=O)c3cc(-c4ccoc4C)ccc23)cc1C` (centres unmarked) [Example 193, [(1,1-dimethylethyl)oxy][4-(3,4-dimethylphenyl)-2-methyl-7-(2-methyl-3-furanyl)-1-oxo-1,2-dihydro-3-isoquinolinyl]acetic acid] was 1340 nM.
